How the values were obtained:
Aβ40 = target: T1, Aβ40 (Homo sapiens, UniProt P05067); test: ThT fluorescence assay of Aβ monomer aggregation; format: biochemical; conditions: 40 μM Aβ40 monomer, mean ± SEM, n = 3–5, N.E. = not significantly different from control samples; for Lag Time Extension (Fold Increase) / Plateau Reduction (% Inhibition): 100 µM compound; for Lag Time Extension (Fold Increase): T2/T1 relative to control; for inhibition at 100 µM: pH 8, 100 µM compound, read-out: Plateau Reduction (% Inhibition); for inhibition at 100 µM / Plateau Reduction (% Inhibition): 40 mM Tris-HCl pH 8.0, 25 °C
T1 construct: purchased AnaSpec; host or cells: synthetic peptide
Source text: Synthetic Aβ40 was used in this study because it is the predominant isoform found in amyloid plaques isolated from AD brain [12]. Thioflavin T (ThT), a fluorescent compound that binds specifically to amyloid β-sheet structures to yield a shifted, enhanced florescence, was used to monitor the appearance of aggregates. […] The inhibitory effect of compounds on Aβ aggregation was evidenced as a reduction in the equilibrium plateau and/or an increase in the lag time. The plateau reduction (Figure 2A), which indicates inhibition that reduces the extent of Aβ aggregation, was defined as the percentage decrease of the plateau ThT fluorescence in the presence of inhibitor, P2, compared to the plateau ThT fluorescence in the absence of inhibitor, P1.
Lyophilized Aβ peptide was reconstituted in 50 mM NaOH at a concentration of 2 mg/mL and purified via size-exclusion chromatography (SEC) on a Superdex 75 HR 10/300 column (Cytiva, Marlborough, MA) using a running buffer of 40 mM Tris-HCl (pH 8.0). Bovine serum albumin (BSA) (2 mg/mL) was employed as a pretreatment to reduce nonspecific Aβ interaction with the dextran matrix of the column. […] The concentrations of eluted Aβ monomer fractions were determined with a calculated extinction coefficient of 1450 M^−1 cm^−1 at 276 nm. Purified Aβ monomer samples were used fresh or stored at 4 ℃ for up to 4 days.
All compounds were dissolved in DMSO at 5 mM and stored at −20 °C. […] DMSO (2% v/v) was added to control reactions run in parallel.
SEC-purified Aβ monomer was diluted to 40 μM in 40 mM Tris-HCl (pH 8.0) and agitated (vortex, 800 rpm, 25 °C) without (control) or with 100 µM ranitidine analogs. Periodically, a 20-μL aliquot was removed and combined with 140 μL of 10 μM ThT. Fluorescence (excitation = 450 nm, emission = 470–500 nm) was evaluated using a Perkin-Elmer LS-45 luminescence spectrometer (Waltham, MA, USA). Fluorescence values were calculated as the integrated area under the emission curve with baseline (ThT alone) subtraction and plotted vs. aggregation time. Each compound was evaluated using at least three independent experiments.
Figure 2 Assessment of the inhibition of Aβ monomer aggregation. Monomer aggregation assays were conducted in the absence (solid line, control) and presence (dotted line, experimental) of the ranitidine analogs, and aggregate formation was monitored as an increase in the ThT fluorescence. (A) Inhibition that decreases the quantity of aggregates formed at equilibrium is reported as the plateau reduction, the percentage decrease of the plateau ThT fluorescence in the presence of inhibitor, P2, compared to the plateau for the control, P1. (B) Inhibition that extends the time to aggregate formation is reported as the lag time extension. It is evidenced as an increase in the experimental lag time, T2, relative to the lag time for the control, T1, and evaluated as a fold increase relative to the control, T2/T1.

electric eel AChE = target: T2, electric eel AChE (Electrophorus electricus, UniProt O42275); test: AChE inhibition assay (modified Ellman method); format: biochemical; conditions: 0.1 M sodium phosphate pH 8.0, 37 °C, 200 µM acetylthiocholine
T2 construct: purchased Sigma (Sigma-Aldrich, St. Louis, MO, USA)
Protocol: Aβ40 was purchased from AnaSpec (AnaSpec, Fremont, CA, USA) and stored in lyophilized form at −20 °C. Thioflavin T (ThT) and electric eel AChE were obtained from Sigma (Sigma-Aldrich, St. Louis, MO, USA). Bovine serum albumin (BSA) and dimethyl sulfoxide (DMSO) were purchased from EMD Biosciences (EMD Biosciences, San Diego, CA, USA). Tris-HCl (pH 8.0) was prepared using Tris base, purchased from Promega (Promega, Madison, WI, USA) and Tris hydrochloride, purchased from EMD (EMD, Burlington, MA, USA).
The AChE inhibition assay was modified based on the method of Ellman et al. in a 24-well plate format at 37 °C. Assays were performed in 0.1 M sodium phosphate (pH 8.0), containing 200 µM acetylthiocholine, 100 µM dithiobisnitrobenzoic acid, and 0.005 units of AChE in a final volume of 3000 µL. The reaction was initiated by the addition of acetylthiocholine, and the formation of a product was monitored by measuring absorbance at 412 nm. The IC50 values were determined by nonlinear regression analysis of the concentration–response curves generated. Each compound was evaluated using at least three independent experiments.

AChE = tested on: AChE; set-up: method as in PMID 27769620; conditions: previous study; cited from earlier work

T1 sequence (P05067 672-711 limits assumed): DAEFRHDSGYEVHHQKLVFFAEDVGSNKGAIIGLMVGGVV
T2 sequence (O42275 24-633): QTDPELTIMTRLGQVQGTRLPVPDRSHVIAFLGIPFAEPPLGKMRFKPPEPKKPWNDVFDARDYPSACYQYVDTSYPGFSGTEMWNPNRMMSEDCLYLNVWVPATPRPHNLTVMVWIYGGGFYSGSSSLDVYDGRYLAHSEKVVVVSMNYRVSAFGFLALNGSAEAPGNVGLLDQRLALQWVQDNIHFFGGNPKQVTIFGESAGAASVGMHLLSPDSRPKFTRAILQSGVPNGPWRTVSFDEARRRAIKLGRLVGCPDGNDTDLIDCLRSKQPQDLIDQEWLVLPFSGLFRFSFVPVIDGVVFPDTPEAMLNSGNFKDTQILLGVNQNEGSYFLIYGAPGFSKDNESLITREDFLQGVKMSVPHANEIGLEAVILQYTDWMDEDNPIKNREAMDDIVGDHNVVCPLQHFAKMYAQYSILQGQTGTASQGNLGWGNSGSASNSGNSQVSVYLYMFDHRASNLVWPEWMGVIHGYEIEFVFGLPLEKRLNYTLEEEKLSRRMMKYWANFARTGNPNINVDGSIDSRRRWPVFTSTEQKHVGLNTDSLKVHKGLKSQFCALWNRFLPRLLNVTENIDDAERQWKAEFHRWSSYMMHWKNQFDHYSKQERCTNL

| Molecule | Lag Time Extension (Fold Increase) (Aβ40) | inhibition at 100 µM (Aβ40) | IC50 (electric eel AChE) | Plateau Reduction (% Inhibition) (Aβ40) | IC50 (AChE) |
| --- | --- | --- | --- | --- | --- |
| CN(C)Cc1ccc(CSCCN2C(=O)c3cccc4cccc(c34)C2=O)o1 [Compound 3] | lost and N.E. | 60.9% | – | – | – |
| CN(C)Cc1ccc(CSCCN2C(=O)c3cccc4c(Cl)ccc(c34)C2=O)o1 [Compound 8, 6-Chloro-2-(2-(((5-((dimethylamino)methyl)furan-2-yl)methyl)thio)ethyl)-1H-benzo [de]isoquinoline-1,3(2H)-dione] | N.E. | 65.8% | 1.23 µM | – | – |
| CN(C)Cc1ccc(C[S+]([O-])CCN2C(=O)c3cccc4cccc(c34)C2=O)o1 (centres unmarked) [Compound 14, 2-(2-(((5-((Dimethylamino)methyl)furan-2-yl)methyl)sulfinyl)ethyl)-1H-benzo[de] isoquinoline-1,3(2H)-dione] | N.E. | 20.1% | – | – | – |
| CN(C)Cc1nc(CSCCN2C(=O)c3cccc4cc([N+](=O)[O-])cc(c34)C2=O)cs1 [Compound 10, 2-(2-(((2-((Dimethylamino)methyl)thiazol-4-yl)methyl)thio)ethyl)-5-nitro-1H-benzo[de]isoquinoline-1,3(2H)-dione] | N.E. | 54.2% | 0.52 µM | 61.4% ± 19.7% | – |
| CN(C)Cc1ccc(CSCCN2C(=O)c3cccc4cc([N+](=O)[O-])cc(c34)C2=O)o1 [Compound 6] | N.E. | 71.8% | – | – | 150 nM |
| CN(C)Cc1ccc(CSCCN2C(=O)c3ccc([N+](=O)[O-])cc3C2=O)o1 [Compound 5] | 2.0 ± 0.6 fold | 39.1% | – | – | – |
| O=C1c2cccc3cc([N+](=O)[O-])cc(c23)C(=O)N1CCc1ccco1 [Compound 11, 2-(2-(furan-2-yl)ethyl)-5-nitro-1H-benzo[de]isoquinoline-1,3(2H)-dione] | 1.76 ± 0.61 fold | 60.3% | – | – | – |
| CN(C)Cc1nc(CSCCN2C(=O)c3cccc4cccc(c34)C2=O)cs1 [Compound 9, 2-(2-((2-((Dimethylamino)methyl)thiazol-4-yl)methylthio)ethyl)-1H-benzo[de]iso quinoline-1,3(2H)-dione] | N.E. | 61.4% | 2.02 µM | 54.2% ± 5.1% | – |
| 2-(2-(Methylthio)ethyl)-5-nitro-1H-benzo[de]isoquinoline-1,3(2H)-dione [Compound 7] | N.E. | – | – | abrogated and N.E. | – |
| CN(C)Cc1ccc(C[S+]([O-])CCN2C(=O)c3cccc4cc([N+](=O)[O-])cc(c34)C2=O)o1 (centres unmarked) [Compound 13, 2-(2-(((5-((Dimethylamino)methyl)furan-2-yl)methyl)sulfinyl)ethyl)-5-nitro-1H-benzo[de]isoquinoline-1,3(2H)-dione] | N.E. | 26.8% | – | – | – |
| CN(C)Cc1ccc(CCN2C(=O)c3cccc4cc([N+](=O)[O-])cc(c34)C2=O)o1 [Compound 12, 2-(2-(5-((Dimethylamino)methyl)furan-2-yl)ethyl)-5-nitro-1H-benzo[de]isoquino line-1,3(2H)-dione] | 2.25 ± 0.25 fold | 65.6% | 0.36 µM | – | – |
| CN(C)Cc1ccc(CSCCN2C(=O)c3ccccc3C2=O)o1 [Compound 2] | lost and N.E. | – | – | N.E. | – |
| CC1CC(=O)N(CCSCc2ccc(CN(C)C)o2)C1=O (centres unmarked) [Compound 1] | 2.8 ± 0.6 fold | – | – | N.E. | – |
| C[N+](C)([O-])Cc1ccc(CS(=O)(=O)CCN2C(=O)c3cccc4cc([N+](=O)[O-])cc(c34)C2=O)o1 [Compound 15, N,N-Dimethyl-1-(5-(((2-(5-nitro-1,3-dioxo-1H-benzo[de]isoquinolin-2(3H)-yl)ethyl)sulfonyl)methyl)furan-2-yl)methanamine oxide] | N.E. | 20.4% | – | – | – |

From paper PMC8003314, “Design and Synthesis of Ranitidine Analogs as Multi-Target Directed Ligands for the Treatment of Alzheimer’s Disease” (International Journal of Molecular Sciences, 2021)
